Reference: article PMC11342346 (ACS Bio & Med Chem Au, 2024)
*1 amine or outer side, *2 acyl side, *3 side chain or, on linkers, in order; H or OH if unused. Where a SMILES comes first, the peptide text is derived from it. Bridges are numbered along the chain shown (N, C = ends). Roman numbers before positions name the chains, in order. Where no end group is shown, it is not given here. The star is where a group is joined. CO(CH2CH2O)5CH2CH2CO = O=C(CCOCCOCCOCCOCCOCCC(=O)[*:2])[*:1]; PEG12 = NCCOCCOCCOCCOCCOCCOCCOCCOCCOCCOCCOCCOCCC(=O)O; Biotin = O=C1N[C@H]2[C@H](CS[C@H]2CCCCC(=O)*)N1; PEG2 = NCCOCCOCCC(=O)O

How the values were obtained:
[1] = molecular target: biotin-PEG2-MK1-3.6.10S; test: SPR
[2] = molecular target: biotin-PEG12-MK1-3.6.10S; test: SPR
[3] = test system: Ring Finger Protein 43 (RNF43); assay type: binding; settings: SPR, DCP immobilized on streptavidin sensor, RNF43 as analyte
[4] = test system: Wnt signaling in HEK293 TOPbrite (TB) luciferase reporter cells; assay type: cell-based; settings: three independent runs

human ZNRF3 (free, in solution), sequence (Q9ULT6 56-936): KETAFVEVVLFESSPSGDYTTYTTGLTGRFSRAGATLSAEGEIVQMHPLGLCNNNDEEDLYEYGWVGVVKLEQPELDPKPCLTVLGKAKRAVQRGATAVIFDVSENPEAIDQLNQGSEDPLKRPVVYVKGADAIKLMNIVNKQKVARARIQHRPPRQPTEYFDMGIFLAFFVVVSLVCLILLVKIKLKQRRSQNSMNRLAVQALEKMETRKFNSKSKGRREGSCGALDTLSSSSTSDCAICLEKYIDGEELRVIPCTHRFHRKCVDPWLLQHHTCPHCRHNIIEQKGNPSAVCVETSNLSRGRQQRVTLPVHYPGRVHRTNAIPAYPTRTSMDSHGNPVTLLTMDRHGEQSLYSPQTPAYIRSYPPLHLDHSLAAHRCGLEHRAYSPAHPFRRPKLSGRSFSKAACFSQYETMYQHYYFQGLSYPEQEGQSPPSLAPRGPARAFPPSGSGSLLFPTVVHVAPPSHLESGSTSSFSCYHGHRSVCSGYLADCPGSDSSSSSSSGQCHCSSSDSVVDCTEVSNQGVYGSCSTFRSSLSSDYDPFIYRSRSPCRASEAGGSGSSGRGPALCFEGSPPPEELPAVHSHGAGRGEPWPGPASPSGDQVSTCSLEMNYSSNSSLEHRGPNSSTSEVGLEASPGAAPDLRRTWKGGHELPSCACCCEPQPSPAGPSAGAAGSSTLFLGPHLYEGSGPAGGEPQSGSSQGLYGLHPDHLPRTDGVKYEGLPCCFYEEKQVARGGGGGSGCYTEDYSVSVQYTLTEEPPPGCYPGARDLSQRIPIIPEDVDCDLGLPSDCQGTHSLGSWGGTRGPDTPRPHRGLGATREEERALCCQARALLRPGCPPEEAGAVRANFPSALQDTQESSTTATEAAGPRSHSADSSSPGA

human ZNRF3 (free, in solution) (from UniProt Q9ULT6 56-936) (natural protein)
Kd [1]: 149 nM | Kd [2]: 118 nM

CC[C@H](C)[C@@H]1NC(=O)[C@@H]2CCCN2C(=O)[C@H](CCCNC(=N)N)NC(=O)[C@H](CCC(=O)O)NC(=O)[C@@H]2CSSC[C@@H]3NC(=O)[C@H](CCCCN)NC(=O)[C@H](CCCCN)NC(=O)[C@H](CC(N)=O)NC(=O)[C@H](CC(C)C)NC(=O)[C@H](CCCNC(=N)N)NC(=O)[C@H](CC(N)=O)NC(=O)[C@@H](NC(=O)[C@H](CO)NC(=O)CCOCCOCCOCCOCCOCCOCCOCCOCCOCCOCCOCCOCCNC(=O)CCCC[C@@H]4SC[C@@H]5NC(=O)N[C@@H]54)CSSC[C@H](NC(=O)[C@H](CSSC[C@@H](C(=O)N[C@@H](CCCNC(=N)N)C(=O)N4CCC[C@H]4C(=O)N[C@@H](CC(=O)O)C(=O)N[C@H](C(=O)NCC(=O)N4CCC[C@H]4C(=O)O)C(C)C)NC(=O)[C@H](Cc4ccc(O)cc4)NC(=O)[C@H](CCSC)NC(=O)[C@H](Cc4ccccc4)NC(=O)[C@H](CCCCN)NC(=O)[C@H](Cc4c[nH]c5ccccc45)NC(=O)CNC1=O)NC(=O)[C@H](CC(=O)O)NC(=O)[C@H](C)NC(=O)[C@H](CC(=O)O)NC(=O)[C@H](CO)NC(=O)[C@H](CC(N)=O)NC3=O)C(=O)N[C@@H](C)C(=O)N[C@@H](CC(N)=O)C(=O)N[C@@H](CCCCN)C(=O)N[C@@H](CCC(=O)O)C(=O)N[C@@H](CCCCN)C(=O)N2 [biotin-PEG12-MK1-3.6.10S] ({Biotin-PEG12}-SCNRLNKKCNSDADCCANKEKCERPIGWKFMYCRPDVGP-OH; disulfide 2-16, 9-22, 15-33; C-terminus assumed)
binding to RNF43 [3]: did not bind

CC[C@H](C)[C@@H]1NC(=O)[C@@H]2CCCN2C(=O)[C@H](CCCNC(=N)N)NC(=O)[C@H](CCC(=O)O)NC(=O)[C@@H]2CSSC[C@@H]3NC(=O)[C@H](CCCCN)NC(=O)[C@H](CCCCN)NC(=O)[C@H](CC(N)=O)NC(=O)[C@H](CC(C)C)NC(=O)[C@H](CCCNC(=N)N)NC(=O)[C@H](CC(N)=O)NC(=O)[C@@H](NC(=O)[C@H](CO)NC(=O)CCOCCOCCNC(=O)CCCC[C@@H]4SC[C@@H]5NC(=O)N[C@@H]54)CSSC[C@H](NC(=O)[C@H](CSSC[C@@H](C(=O)N[C@@H](CCCNC(=N)N)C(=O)N4CCC[C@H]4C(=O)N[C@@H](CC(=O)O)C(=O)N[C@H](C(=O)NCC(=O)N4CCC[C@H]4C(=O)O)C(C)C)NC(=O)[C@H](Cc4ccc(O)cc4)NC(=O)[C@H](CCSC)NC(=O)[C@H](Cc4ccccc4)NC(=O)[C@H](CCCCN)NC(=O)[C@H](Cc4c[nH]c5ccccc45)NC(=O)CNC1=O)NC(=O)[C@H](CC(=O)O)NC(=O)[C@H](C)NC(=O)[C@H](CC(=O)O)NC(=O)[C@H](CO)NC(=O)[C@H](CC(N)=O)NC3=O)C(=O)N[C@@H](C)C(=O)N[C@@H](CC(N)=O)C(=O)N[C@@H](CCCCN)C(=O)N[C@@H](CCC(=O)O)C(=O)N[C@@H](CCCCN)C(=O)N2 [biotin-PEG2-MK1-3.6.10S] ({Biotin-PEG2}-SCNRLNKKCNSDADCCANKEKCERPIGWKFMYCRPDVGP-OH; disulfide 2-16, 9-22, 15-33; C-terminus assumed)
binding to RNF43 [3]: did not bind

I: SCNRLNKKCNSDADCCANKEKCERPIGWKFMYCRPDVGP / II: SCNRLNKKCNSDADCCANKEKCERPIGWKFMYCRPDVGP (disulfide I:2-I:16, I:9-I:22, I:15-I:33, II:2-II:16, II:9-II:22, II:15-II:33; linker I:N-II:N via CO(CH2CH2O)5CH2CH2CO) [di-MK1-3.6.10S]
activation of Wnt signaling in reporter assay (in words) [4]: able to induce Wnt signaling activation to a similar extent to the synthetic MK1-3.6.10 dimer
